Source: patent US9988343B2, “Inhibitors of histone deacetylase” (Dana-Farber Cancer Institute, Inc., priority 2013, dated 2018)

Key:
Assay type in all cases: cell-based, human
[1] = system: STAT3 acetylation in MM.1S cells; assay: Immunoprecipitation/immunoblot of STAT3 acetylation; conditions: 20 μM, 18 hours (FIG. 6H)
Protocol: Whole-cell lysates were incubated with anti-STAT3, -JAK2, and -green fluorescent protein (GFP) Abs for 2 hours at 4° C., and then incubated with Protein A/G PLUS-Agarose® (Santa Cruz Biotechnology) overnight at 4° C. Anti-GFP Ab served as a control. Immune complexes were analyzed by immunoblotting with anti-STAT3, -JAK2, -acetylated-Lysine, and -phosphorylated-tyrosine Abs. […] Whole cell lysates were immunoprecipitated with anti-STAT3 Ab. Immunoprecipitates were then subjected to SDS-PAGE and immunoblotted with anti-Ac-K and -STAT3 Abs.

[2] = system: primary tumor cells from MM patients; assay: MTT growth assay in primary tumor cells from MM patients; conditions: 30 μM, 72 hours, MTT (FIG. 6B)
Protocol: (§1) BM specimens were obtained from patients with MM, and mononuclear cells (MNCs) were separated by Ficoll-Hipaque density sedimentation. Primary CD138+ plasma cells from MM patients were obtained using negative selection, as in previous studies. […] CD138-BMMNCs were used to establish long-term BMSC cultures, as previously described. […] Peripheral blood mononuclear cells were collected from healthy volunteers to obtain mononuclear cells (PBMCs). All procedures were performed with IRB-approved (Dana-Farber Cancer Institute) protocols and informed consent, and in accordance with the Declaration of Helsinki protocol. […] Cell growth was then assessed by MTT assay. Data represents mean±SD from triplicates cultures (FIG. 6B). […] Cell growth was assessed by MTT assay. The data represents mean±SD from triplicate cultures (FIG. 6C).

[3] = system: pERK1/2 (Thr202/204); assay: Immunoblot of ERK phosphorylation; conditions: MM.1S, 10 and 20 μM, 10 hours, then IL-6 10 ng/mL 4 hours (FIG. 6G)
[4] = system: RPMI8226 cells; assay: Combination with carfilzomib, MTT assay; conditions: RPMI8226, Compound 10 5, 10, 20 um + carfilzomib 3, 5, 7.5 nM, 24 h (FIG. 10)
Protocol: All experiments were performed 3 times in quadruplicate. Data represent mean+/−SD (FIG. 10). The y-axis (% control) indicates the relative number of viable cells after each treatment.

[5] = system: pSTAT3 (Tyr705); assay: Immunoblot of STAT3 phosphorylation in MM cells; conditions: MM.1S, 10 and 20 μM, 10 hours, then IL-6 10 ng/mL 4 hours (FIG. 6G)
Protocol: MM cells were harvested and lysed using sodium dodecyl sulfate-polyacrylamide gel electrophoresis (SDS-PAGE) sample buffer containing 60 mM Tris-HCl, pH 6.8, 2% SDS, 10% glycerol, 0.005% bromophenol blue, 5 mM ethylenediaminetetraacetic acid, 5 mM NaF, 2 mM […], 1 mM phenylmethylsulfonyl fluoride (PMSF), 5 μg/mL leupeptin, and 5 μg/mL aprotinin; and then heated at 100° C. for 5 min. After the determination of protein concentration using DC protein assay (Bio-Rad, Hercules, Calif.), β-mercaptoethanol (β-ME) was added to the whole-cell lysates to a 2% final β-ME concentration. The whole-cell lysates were subjected to SDS-PAGE, transferred to nitrocellulose membranes (Bio-Rad, Hercules, Calif.) or polyvinylidene fluoride membranes (Millipore, Billerica, Mass.), and immunoblotted with anti-histone H3, -HDAC1, -HDAC2, -HDAC3, -Acetyl-histone H2A (Lysine 5) (Ac-H2AK5), -Acetyl-histone H2B (lysine 5) (Ac-H2 BK5), -Acetyl-histone H3 (lysine 9) (Ac-H3K9), -Acetyl-histone H4 (lysine 8) (Ac-H4K8), -glyceraldehyde-3-phosphate dehydrogenase (GAPDH), -poly (ADP-ribose) polymerase (PARP), -caspase-3, -caspase-8, -caspase-9, -Signal transducers and activators of transcription 3 (STAT3), -phospho-STAT3 (pSTAT3) (tyrosine 705), -pSTAT3 (serine 727), -p21, -Janus kinase 2 (JAK2), -acetylated-Lysine (Ac-K), and anti-phosphorylated-tyrosine antibodies (Abs; Cell Signaling Technology, Beverly, Mass.).
MM.1S, U266, and INA6 cells were cultured with DMSO control or LBH589 (50 and 100 nM) for 8 h.
MM.1S cells pretreated with or without 50 nM LBH589 for 8 hours were then treated with IL-6 (10 ng/mL) or BMSC culture supernatants (#1 and #2) for 15 minutes. Whole cell lysates were subjected to immunoblotting with anti-pSTAT3 (Tyr705) and STAT3 Abs.
In addition, INA-6 cells were cultured with DMSO control, LBH589 (50 nM), TSA (1 μM) or SAHA (2 μM) for 8 hours. Whole cell lysates were subjected to immunoblotting with anti-pSTAT3 (Tyr705), STAT3, and GAPDH Abs.
Whole cell lysates were subjected to immunoblotting with anti-pSTAT3 (Tyr705), -STAT3, -pERK1/2 (Thr202/204), and -ERK1/2 Abs (FIG. 6G).
See, e.g., Hideshima et al. Blood. 2006, 107:4053-4062. Since bortezomib upregulates activated STAT3 in head and neck squamous cell carcinoma (see, e.g., Li et al. Mol Cancer Ther 2009. 8:2211-2220), experiments were conducted to test whether bortezomib enhances p-STAT3 in MM cells. RPMI8226 cells were infected with Luc, HDAC1 (sh1), HDAC2 (sh1) or HDAC3 (sh1) shRNAs and then treated with or without bortezomib (5 nM) for 6 hours. Whole cell lysates were subjected to immunoblotting with anti-STAT3, -pSTAT3 (Tyr705), -pERK1/2 (Thr202/204) and -ERK1/2 Abs.

[6] = system: PBMCs; assay: MTT growth assay in normal donor PBMCs; conditions: 7.5, 15, 30 μM, 72 hours, MTT (FIG. 6C)
Protocol: as §1

growth of normal donor PBMCs [6]: without affecting normal donor PBMCs
SMILES: Nc1ccccc1NC(=O)c1cnccn1 [Compound 10, N-(2-aminophenyl)pyrazine-2-carboxamide]
acetylation of STAT3 [1]: increased acetylation of STAT3 | growth of patient-derived MM cells [2]: potent growth inhibitory effect | p-ERK1/2 [3]: without affecting p-ERK1/2 | cytotoxicity induced by carfilzomib [4]: enhanced the cytotoxicity of carfilzomib | p-STAT3 [5]: markedly downregulated p-STAT3
